Reference: ChEMBL document CHEMBL1201862, “PubChem BioAssay data set” (2004)
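Dose response: 5 concentrations. Exposure: 48 h. Format: 96-well plates. Endpoint: linear interpolation; highest concentration if not reached. GI50: concentration for 50% inhibition of growth.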 The source made the active and inactive calls. Rule as the data show it: active = GI50 up to about 1.1 µM and inactive = higher.

How the values were obtained:
Experiment in all cases: growth of human tumour cells (NCI), 48 h
786-0 = tested on: 786-0
A549 = tested on: A549
CAKI-1 = tested on: CAKI-1
COLO 205 = tested on: COLO 205
HCT-116 = tested on: HCT-116
HCT-15 = tested on: HCT-15
Hs-578T = tested on: Hs-578T
LOX IMVI = tested on: LOX IMVI
MDA-MB-231 = tested on: MDA-MB-231
MDA-MB-435 = tested on: MDA-MB-435
MOLT-4 = tested on: MOLT-4
Malme-3M = tested on: Malme-3M
NCI-H460 = tested on: NCI-H460
SF-539 = tested on: SF-539
SK-OV-3 = tested on: SK-OV-3
SNB-19 = tested on: SNB-19
SW-620 = tested on: SW-620
U-251 = tested on: U-251
UACC-257 = tested on: UACC-257
UACC-62 = tested on: UACC-62

| SMILES | GI50 (786-0) | GI50 (A549) | GI50 (CAKI-1) | GI50 (COLO 205) | GI50 (HCT-116) | GI50 (HCT-15) [µM] | GI50 (Hs-578T) | GI50 (LOX IMVI) | GI50 (MDA-MB-231) | GI50 (MDA-MB-435) | GI50 (MOLT-4) | GI50 (Malme-3M) | GI50 (NCI-H460) | GI50 (SF-539) | GI50 (SK-OV-3) | GI50 (SNB-19) | GI50 (SW-620) | GI50 (U-251) | GI50 (UACC-257) | GI50 (UACC-62) |
| --- | --- | --- | --- | --- | --- | --- | --- | --- | --- | --- | --- | --- | --- | --- | --- | --- | --- | --- | --- | --- |
| NC1=CC(C(=O)c2ccncc2)c2nc3ccccc3nc21 (stereo not drawn) | > 100 µM (inactive) | > 100 µM (inactive) | 42.2 µM (inactive) | > 100 µM (inactive) | > 100 µM (inactive) | 92.7 | 57 µM (inactive) | 22.7 µM (inactive) | > 100 µM (inactive) | > 100 µM (inactive) | > 100 µM (inactive) | > 100 µM (inactive) | 75.5 µM (inactive) | > 100 µM (inactive) | > 100 µM (inactive) | > 100 µM (inactive) | > 100 µM (inactive) | > 100 µM (inactive) | > 100 µM (inactive) | > 100 µM (inactive) |
| C(=N\Nc1ccc(-c2nc3ccccc3[nH]2)cc1)/c1c(-c2ccc(Cc3ccccc3)cc2)[nH]c2ccccc12 | 3.3 µM (inactive) | 6.85 µM (inactive) | 14.3 µM (inactive) | 3.94 µM (inactive) | 5.01 µM (inactive) | 4.07 | 2.57 µM (inactive) | 4.05 µM (inactive) | 11.5 µM (inactive) | 3.23 µM (inactive) | 2.56 µM (inactive) | 2.49 µM (inactive) | 10.8 µM (inactive) | 5.74 µM (inactive) | 21.6 µM (inactive) | 14.2 µM (inactive) | 9.98 µM (inactive) | 6.01 µM (inactive) | 13.5 µM (inactive) | 7.69 µM (inactive) |
| CCCC[C@@H]1CCN2C[C@@H](O)[C@@H](O)[C@H]2[C@@H]1O | > 100 µM (inactive) | > 100 µM (inactive) | > 100 µM (inactive) | > 100 µM (inactive) | > 100 µM (inactive) | > 100 | > 100 µM (inactive) | > 100 µM (inactive) | > 100 µM (inactive) | > 100 µM (inactive) | > 100 µM (inactive) | > 100 µM (inactive) | > 100 µM (inactive) | > 100 µM (inactive) | > 100 µM (inactive) | > 100 µM (inactive) | > 100 µM (inactive) | > 100 µM (inactive) | > 100 µM (inactive) | > 100 µM (inactive) |
| CC(C)(C)OC(=O)NC(Cc1ccc(OC(C)(C)C)cc1)C(=O)N[C@H]1CCC[C@H]1C(=O)NC(Cc1ccccc1)C(=O)N1CCCC1C(N)=O (stereo partly drawn) | > 100 µM (inactive) | > 100 µM (inactive) | > 100 µM (inactive) | > 100 µM (inactive) | > 100 µM (inactive) | > 100 | > 100 µM (inactive) | > 100 µM (inactive) | > 100 µM (inactive) | > 100 µM (inactive) | > 100 µM (inactive) | > 100 µM (inactive) | > 100 µM (inactive) | > 100 µM (inactive) | > 100 µM (inactive) | > 100 µM (inactive) | > 100 µM (inactive) | > 100 µM (inactive) | > 100 µM (inactive) | > 100 µM (inactive) |
| COc1ccc2[nH]c3c(c2c1)CCc1ccccc1-3 | 50.7 µM (inactive) | > 100 µM (inactive) | > 100 µM (inactive) | > 100 µM (inactive) | > 100 µM (inactive) | 70.5 | 17.4 µM (inactive) | 78.9 µM (inactive) | 20.2 µM (inactive) | > 100 µM (inactive) | 80.9 µM (inactive) | 39.2 µM (inactive) | 30.8 µM (inactive) | 16.7 µM (inactive) | 40.9 µM (inactive) | 81.3 µM (inactive) | > 100 µM (inactive) | 30.3 µM (inactive) | > 100 µM (inactive) | > 100 µM (inactive) |
| O=C1/C(=C/c2ccc(O)cc2)CCc2ccccc21 | 16.7 µM (inactive) | 23.6 µM (inactive) | 31.3 µM (inactive) | 22 µM (inactive) | 16.1 µM (inactive) | 18.8 | 23 µM (inactive) | 20 µM (inactive) | 20.5 µM (inactive) | 21.5 µM (inactive) | 2.82 µM (inactive) | 20.7 µM (inactive) | 29.3 µM (inactive) | 18 µM (inactive) | > 55.6 µM (inactive) | 22.4 µM (inactive) | 19.4 µM (inactive) | 27.6 µM (inactive) | 17.3 µM (inactive) | 21.5 µM (inactive) |
| COc1cc(/C=C/C(=O)C2(C(=O)/C=C/c3cc(OC)c(OC)c(OC)c3)CCCCC2)cc(OC)c1OC | 43.2 µM (inactive) | > 100 µM (inactive) | 49.4 µM (inactive) | 78.9 µM (inactive) | 31.1 µM (inactive) | 33.3 | 29.6 µM (inactive) | 38.7 µM (inactive) | 42.9 µM (inactive) | 21.5 µM (inactive) |  | 37.6 µM (inactive) | 80.7 µM (inactive) | 19 µM (inactive) | 68.9 µM (inactive) | 36.6 µM (inactive) | 38.3 µM (inactive) | 30.1 µM (inactive) | 76.9 µM (inactive) | 26.2 µM (inactive) |
| Clc1ccc(/C=N/c2ccc3c(c2)Cc2ccccc2-3)c(Cl)c1 | > 100 µM (inactive) | > 100 µM (inactive) | > 100 µM (inactive) | > 100 µM (inactive) | 58.1 µM (inactive) | 40.6 | > 100 µM (inactive) | 92.9 µM (inactive) | > 100 µM (inactive) | 50.7 µM (inactive) | > 100 µM (inactive) | > 100 µM (inactive) | > 100 µM (inactive) | > 100 µM (inactive) | > 100 µM (inactive) | > 100 µM (inactive) | > 100 µM (inactive) | > 100 µM (inactive) | > 100 µM (inactive) | > 100 µM (inactive) |
| CCCCn1cnc2c(SC)ncnc21 | > 100 µM (inactive) | > 100 µM (inactive) | > 100 µM (inactive) | > 100 µM (inactive) | > 100 µM (inactive) | > 100 | > 100 µM (inactive) | > 100 µM (inactive) | > 100 µM (inactive) | > 100 µM (inactive) | 28.4 µM (inactive) | > 100 µM (inactive) | > 100 µM (inactive) | > 100 µM (inactive) | > 100 µM (inactive) | > 100 µM (inactive) | > 100 µM (inactive) | > 100 µM (inactive) | > 100 µM (inactive) | > 100 µM (inactive) |
| Cc1nc2ccc(S(=O)(=O)Nc3ccccc3)cc2c(=O)n1NC(=O)CNc1ccccc1 | > 100 µM (inactive) | > 100 µM (inactive) | > 100 µM (inactive) | > 100 µM (inactive) | > 100 µM (inactive) | > 100 | > 100 µM (inactive) | > 100 µM (inactive) | > 100 µM (inactive) | > 100 µM (inactive) | > 100 µM (inactive) | > 100 µM (inactive) | > 100 µM (inactive) | > 100 µM (inactive) | > 100 µM (inactive) | > 100 µM (inactive) | > 100 µM (inactive) | > 100 µM (inactive) | > 100 µM (inactive) | > 100 µM (inactive) |
| COc1ccc(C(=O)/C=C/c2ccc(O)c(O)c2)c(OC)c1 | 5.21 µM (inactive) | 14 µM (inactive) | 6.27 µM (inactive) | 15.1 µM (inactive) | 0.638 µM (active) | 0.292 | 2.19 µM (inactive) | 3.58 µM (inactive) | 2.71 µM (inactive) | 0.47 µM (active) | 2.79 µM (inactive) | 4.65 µM (inactive) | 3.04 µM (inactive) | 0.834 µM (active) | 5.15 µM (inactive) | 2.96 µM (inactive) | 1.22 µM (inactive) | 1.7 µM (inactive) | 3.87 µM (inactive) | 2.98 µM (inactive) |
| c1ccc2c[n+](Cc3ccnc4ccccc34)ccc2c1 | > 100 µM (inactive) | > 100 µM (inactive) | > 100 µM (inactive) | 67.1 µM (inactive) | > 100 µM (inactive) | > 100 | > 100 µM (inactive) | > 100 µM (inactive) | > 100 µM (inactive) | > 100 µM (inactive) | > 100 µM (inactive) | > 100 µM (inactive) | > 100 µM (inactive) | > 100 µM (inactive) | > 100 µM (inactive) | > 100 µM (inactive) | > 100 µM (inactive) | > 100 µM (inactive) | > 100 µM (inactive) | > 100 µM (inactive) |
| O=[N+]([O-])/C(C(Cl)=C(Cl)Cl)=C(\Nc1ccccc1)n1nnc2ccccc21 | 48.9 µM (inactive) | > 100 µM (inactive) | > 100 µM (inactive) | 27 µM (inactive) | 65.3 µM (inactive) | > 100 | 20.6 µM (inactive) | 17.4 µM (inactive) | 27 µM (inactive) | 26.8 µM (inactive) | 35.5 µM (inactive) | 46.1 µM (inactive) | 77.8 µM (inactive) | 32.3 µM (inactive) | 71.3 µM (inactive) | 41.7 µM (inactive) | 32.2 µM (inactive) | 29.9 µM (inactive) | > 100 µM (inactive) | 40 µM (inactive) |
| CCOc1cc(NC(C)=O)ccc1C(=O)NN1C(=O)CSC1c1ccc(O)c(OC)c1 (stereo not drawn) | > 100 µM (inactive) | 38.9 µM (inactive) | 44.4 µM (inactive) | 33.1 µM (inactive) | 60.1 µM (inactive) | 40.8 | 82.4 µM (inactive) | 87.3 µM (inactive) | 53.8 µM (inactive) | 46.2 µM (inactive) | 23.8 µM (inactive) | 46.8 µM (inactive) | 43.5 µM (inactive) | > 100 µM (inactive) | 93.5 µM (inactive) | 89.1 µM (inactive) | 87.7 µM (inactive) |  | 48.4 µM (inactive) | 50.4 µM (inactive) |
